Test results published in patent US7425640B2, “Substituted 5-carboxyamide pyrazoles and [1,2,4]triazoles as antiviral agents” (priority 2004, dated 2008).

target: HCV RNA-dependent RNA polymerase NS5B (Δ21) (Hepatitis C virus genotype 1b, UniProt P26663); assay: Assay for HCV RNA-dependent RNA polymerase activity (SPA, [3H]-GTP incorporation); format: biochemical; settings: read-out: Δ21 Activity (IC50 μM); 50 nM NS5B (Δ21), class symbols
Experimental: Inhibitory activity of the present compounds against HCV RNA-dependent RNA polymerase was assayed according to the methods disclosed in United States Patent Application US2004/038993, content of which is incorporated herein by reference; and those described in Ferrari, E.; Wright-Minogue, J.; Fang, J. W. S.; Baroudy, B. M.; Lau, J. Y. N.; Hong, Z. J. Virol. 1999, 73, 1649.
Briefly, 50 μl reactions containing 20 mM HEPES (pH 7.3), 7.5 mM DTT, 20 units/ml RNasIN, 0.5 μg/ml biotinylated oligoG12, 5 μg/ml polyC, 5 μM GTP, 20 μCi/ml [^3H]-GTP, 10 mM MgCl2, 60 mM NaCl, 100 μg/ml BSA, and 50 nM NS5B (Δ21) were incubated at room temperature for three hours in 96-well plates with or without test compounds. Assay was terminated by the addition of 50 μl 10 mg/ml streptavidin-coated SPA beads supplemented with 100 mM EDTA, and the incorporation of labeled GTP determined by a TopCount Scintillation Counter. IC50 values were calculated from single experiments using 11 serial 2-fold dilutions (0.05-50 μM), and data were considered reliable only when the IC50 value of a positive internal control was within standard deviation range.

Chain of HCV RNA-dependent RNA polymerase NS5B (Δ21) (P26663 2420-2989, stated change not applied): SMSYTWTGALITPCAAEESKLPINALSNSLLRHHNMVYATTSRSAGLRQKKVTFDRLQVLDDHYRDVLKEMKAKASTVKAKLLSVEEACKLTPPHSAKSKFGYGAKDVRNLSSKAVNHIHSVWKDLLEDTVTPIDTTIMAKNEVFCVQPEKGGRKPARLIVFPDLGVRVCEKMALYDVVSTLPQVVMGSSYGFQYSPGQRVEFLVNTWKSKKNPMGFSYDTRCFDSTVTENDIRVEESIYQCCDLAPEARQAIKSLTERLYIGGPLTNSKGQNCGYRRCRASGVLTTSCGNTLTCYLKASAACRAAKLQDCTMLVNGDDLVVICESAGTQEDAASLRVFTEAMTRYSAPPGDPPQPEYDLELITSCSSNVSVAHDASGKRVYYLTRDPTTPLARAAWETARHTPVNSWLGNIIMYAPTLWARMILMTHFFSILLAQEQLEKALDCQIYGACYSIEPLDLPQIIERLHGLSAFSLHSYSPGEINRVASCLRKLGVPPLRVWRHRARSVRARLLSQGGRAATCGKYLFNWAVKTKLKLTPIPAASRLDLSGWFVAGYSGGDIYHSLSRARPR

| Compound | IC50 [µM] |
| --- | --- |
| CCOC(=O)c1nc(C(=O)N[C@H]2CCCC[C@@H]2OCc2ccccc2)n(CC(=O)N[C@H]2CCCC[C@@H]2OCc2ccccc2)n1 [Compound 141] | 0.1 to 1 |
| CC(C)(C)OC(=O)CNC(=O)c1cc(C(=O)N[C@H]2CCCC[C@@H]2OCc2ccccc2)n(CC(=O)N[C@H]2CCCC[C@@H]2OCc2ccccc2)n1 [Compound 105] | 0.1 to 1 |
| O=C(Cn1nc(NC(=O)c2ccccc2)cc1C(=O)N[C@H]1CCCC[C@@H]1OCc1ccccc1)N[C@H]1CCCC[C@@H]1OCc1ccccc1 [Compound 91] | 0.1 to 1 |
| COc1ccccc1NC(=O)c1cc(C(=O)N[C@H]2CCCC[C@@H]2OCc2ccccc2)n(CC(=O)N[C@H]2CCCC[C@@H]2OCc2ccccc2)n1 [Compound 73] | 0.1 to 1 |
| O=C(Cn1nc(C(=O)NCc2ccncc2)cc1C(=O)N[C@H]1CCCC[C@@H]1OCc1ccccc1)N[C@H]1CCCC[C@@H]1OCc1ccccc1 [Compound 138] | 0.1 to 1 |
| Cc1ccc(OCC2CC2)c(NC(=O)c2cc(C(=O)O)nn2CC(=O)N[C@H]2CCCC[C@@H]2OCc2ccccc2)c1 [Compound 76] | 0.1 to 1 |
| O=C(Cn1nc(NS(=O)(=O)c2ccc(F)cc2Cl)cc1C(=O)N[C@H]1CCCC[C@@H]1OCc1ccccc1)N[C@H]1CCCC[C@@H]1OCc1ccccc1 [Compound 71] | 0.1 to 1 |
| CC(CCc1ccccc1)NC(=O)c1cc(C(=O)N[C@H]2CCCC[C@@H]2OCc2ccccc2)n(CC(=O)N[C@H]2CCCC[C@@H]2OCc2ccccc2)n1 (some centres unmarked) [Compound 101] | 0.1 to 1 |
| O=C(Cn1nc(C=NO)cc1C(=O)N[C@H]1CCCC[C@@H]1OCc1ccccc1)N[C@H]1CCCC[C@@H]1OCc1ccccc1 [Compound 143] | 0.1 to 1 |
| O=C(Cn1nc(C(=O)O)nc1C(=O)N[C@H]1CCCC[C@@H]1OCc1ccccc1)N[C@H]1CCCC[C@@H]1OCc1ccccc1 [Compound 66] | 0.1 to 1 |
| O=C(Cn1nc(C(=O)NC2CCCCC2)cc1C(=O)N[C@H]1CCCC[C@@H]1OCc1ccccc1)N[C@H]1CCCC[C@@H]1OCc1ccccc1 [Compound 83] | 0.1 to 1 |
| COC(CNC(=O)c1cc(C(=O)N[C@H]2CCCC[C@@H]2OCc2ccccc2)n(CC(=O)N[C@H]2CCCC[C@@H]2OCc2ccccc2)n1)OC [Compound 146] | 0.1 to 1 |
| O=C(Cn1nc(NS(=O)(=O)c2ccc(Cl)c(Cl)c2)cc1C(=O)N[C@H]1CCCC[C@@H]1OCc1ccccc1)N[C@H]1CCCC[C@@H]1OCc1ccccc1 [Compound 61] | 0.1 to 1 |
| O=C(Cn1nc(C(=O)O)cc1C(=O)N[C@H]1CCCC[C@@H]1NCc1ccccc1)N[C@H]1CCCC[C@@H]1OCc1ccccc1 [Compound 120] | 0.1 to 1 |
| COc1ccc(OC)c(S(=O)(=O)Nc2cc(C(=O)N[C@H]3CCCC[C@@H]3OCc3ccccc3)n(CC(=O)N[C@H]3CCCC[C@@H]3OCc3ccccc3)n2)c1 [Compound 97] | 0.1 to 1 |
| CN(C)c1cccc2c(S(=O)(=O)Nc3cc(C(=O)N[C@H]4CCCC[C@@H]4OCc4ccccc4)n(CC(=O)N[C@H]4CCCC[C@@H]4OCc4ccccc4)n3)cccc12 [Compound 113] | 0.1 to 1 |

| Compound | IC50 [µM] |
| --- | --- |
| O=C(Cn1nc(C(=O)Nc2nnn[nH]2)nc1C(=O)N[C@H]1CCCC[C@@H]1OCc1ccccc1)N[C@H]1CCCC[C@@H]1OCc1ccccc1 [Compound 115] | 0.1 to 1 |
| O=C(Cn1nc(C(=O)NCc2cccc(Cl)c2)cc1C(=O)N[C@H]1CCCC[C@@H]1OCc1ccccc1)N[C@H]1CCCC[C@@H]1OCc1ccccc1 [Compound 70] | 0.1 to 1 |
| CN(C)c1cccc2c(S(=O)(=O)NCCNC(=O)c3cc(C(=O)N[C@H]4CCCC[C@@H]4OCc4ccccc4)n(CC(=O)N[C@H]4CCCC[C@@H]4OCc4ccccc4)n3)cccc12 [Compound 64] | 0.1 to 1 |
| O=C(Cn1nc(CO)cc1C(=O)N[C@H]1CCCC[C@@H]1OCc1ccccc1)N[C@H]1CCCC[C@@H]1OCc1ccccc1 [Compound 161] | 0.1 to 1 |
| CC(C)(NC(=O)c1cc(C(=O)N[C@H]2CCCC[C@@H]2OCc2ccccc2)n(CC(=O)N[C@H]2CCCC[C@@H]2OCc2ccccc2)n1)c1ccccc1 [Compound 52] | 0.1 to 1 |
| Cc1c(Cl)cccc1S(=O)(=O)Nc1cc(C(=O)N[C@H]2CCCC[C@@H]2OCc2ccccc2)n(CC(=O)N[C@H]2CCCC[C@@H]2OCc2ccccc2)n1 [Compound 67] | 0.1 to 1 |
| CN(Cc1cccc2ccccc12)C(=O)c1cc(C(=O)N[C@H]2CCCC[C@@H]2OCc2ccccc2)n(CC(=O)N[C@H]2CCCC[C@@H]2OCc2ccccc2)n1 [Compound 130] | 0.1 to 1 |
| Cc1ccc(OCC(C)(C)C)c(NC(=O)c2cc(C(=O)O)nn2CC(=O)N[C@H]2CCCC[C@@H]2OCc2ccccc2)c1 [Compound 114] | 0.1 to 1 |
| CCOC(=O)c1cc(C(=O)N[C@H]2CCCC[C@@H]2OCc2ccccc2)n(CS(=O)(=O)N[C@H]2CCCC[C@@H]2OCc2ccccc2)n1 [Compound 152] | 0.1 to 1 |
| N#Cc1ccc(NNC(=O)c2cc(C(=O)N[C@H]3CCCC[C@@H]3OCc3ccccc3)n(CC(=O)N[C@H]3CCCC[C@@H]3OCc3ccccc3)n2)cc1 [Compound 154] | 0.1 to 1 |
| O=C(Cn1nc(C(=O)N2c3ccccc3CCc3ccccc32)cc1C(=O)N[C@H]1CCCC[C@@H]1OCc1ccccc1)N[C@H]1CCCC[C@@H]1OCc1ccccc1 [Compound 119] | 0.1 to 1 |
| CNC(=O)Nc1cc(C(=O)N[C@H]2CCCC[C@@H]2OCc2ccccc2)n(CC(=O)N[C@H]2CCCC[C@@H]2OCc2ccccc2)n1 [Compound 135] | 0.1 to 1 |
| O=C(Cn1nc(NS(=O)(=O)Cc2ccccc2)cc1C(=O)N[C@H]1CCCC[C@@H]1OCc1ccccc1)N[C@H]1CCCC[C@@H]1OCc1ccccc1 [Compound 84] | 0.1 to 1 |
| CCOC(=O)c1cc(C(=O)N[C@H]2CCCC[C@@H]2OCc2ccccc2)n(CC(=O)Nc2ccccc2Oc2ccc(Cl)c(C)c2)n1 [Compound 136] | 0.1 to 1 |
| O=C(Cn1nc(C(=O)O)cc1C(=O)N[C@@H]1CCCC[C@@H]1OCc1ccccc1)N[C@H]1CCCC[C@H]1OCc1ccccc1 [Compound 132] | 0.1 to 1 |
| O=C(Cn1nc(C(=O)NCCc2ccccc2Cl)cc1C(=O)N[C@H]1CCCC[C@@H]1OCc1ccccc1)N[C@H]1CCCC[C@@H]1OCc1ccccc1 [Compound 103] | 0.1 to 1 |

same assay, conditions: Δ21 Activity (IC50 μM), 50 nM NS5B (Δ21), class symbols

| Compound | IC50 [µM] |
| --- | --- |
| CCOC(=O)CNC(=O)Nc1cc(C(=O)N[C@H]2CCCC[C@@H]2OCc2ccccc2)n(CC(=O)N[C@H]2CCCC[C@@H]2OCc2ccccc2)n1 [Compound 183] | > 1 |
| O=C(Cn1nc(C(=O)NC2CCN(Cc3ccccc3)CC2)cc1C(=O)N[C@H]1CCCC[C@@H]1OCc1ccccc1)N[C@H]1CCCC[C@@H]1OCc1ccccc1 [Compound 192] | > 1 |
| O=C(Cn1nc(NS(=O)(=O)c2ccc(F)cc2)cc1C(=O)N[C@H]1CCCC[C@@H]1OCc1ccccc1)N[C@H]1CCCC[C@@H]1OCc1ccccc1 [Compound 35] | 0.05 to 0.1 |
| Cc1ccc(OCc2ccsc2)c(NC(=O)c2cc(C(=O)O)nn2CC(=O)N[C@H]2CCCC[C@@H]2OCc2ccccc2)c1 [Compound 8] | < 0.05 |
| CCCCC(CC)CNC(=O)c1cc(C(=O)N[C@H]2CCCC[C@@H]2OCc2ccccc2)n(CC(=O)N[C@H]2CCCC[C@@H]2OCc2ccccc2)n1 (some centres unmarked) [Compound 194] | > 1 |
| Cc1ccc(OCc2ccccc2)c(NC(=O)c2cc(NS(=O)(=O)c3ccc(Cl)cc3)nn2CC(=O)N[C@H]2CCCC[C@@H]2OCc2ccccc2)c1 [Compound 44] | 0.05 to 0.1 |
| O=C(Cn1nc(C(=O)NCC(c2ccccc2)c2ccccc2)cc1C(=O)N[C@H]1CCCC[C@@H]1OCc1ccccc1)NC1CCCC[C@@H]1OCc1ccccc1 (some centres unmarked) [Compound 204] | > 1 |
| O=C(Cn1nc(C(=O)NCc2cccc3ccccc23)cc1C(=O)N[C@H]1CCCC[C@@H]1OCc1ccccc1)N[C@H]1CCCC[C@@H]1OCc1ccccc1 [Compound 22] | 0.05 to 0.1 |
| Cc1ccc(OCC2CCC2)c(NC(=O)Cn2nc(C(=O)O)cc2C(=O)N[C@H]2CCCC[C@@H]2OCc2ccccc2)c1 [Compound 43] | 0.05 to 0.1 |
| O=C(Cn1nc(C(=O)O)cc1C(=O)Nc1ccc(F)cc1OCC1CCCCC1)N[C@H]1CCCC[C@@H]1OCc1ccccc1 [Compound 10] | < 0.05 |
| CCOC(=O)c1cc(C(=O)N(C)[C@H]2CCCC[C@@H]2OCc2ccccc2)n(CC(=O)N[C@H]2CCCC[C@@H]2OCc2ccccc2)n1 [Compound 181] | > 1 |
| C[C@@H](NC(=O)c1cc(C(=O)N[C@H]2CCCC[C@@H]2OCc2ccccc2)n(CC(=O)N[C@H]2CCCC[C@@H]2OCc2ccccc2)n1)c1cccc2ccccc12 [Compound 7] | < 0.05 |
| N#CNC(=O)c1cc(C(=O)Nc2ccccc2OCc2ccccc2)n(CC(=O)N[C@H]2CCCC[C@@H]2OCc2ccccc2)n1 [Compound 6] | < 0.05 |
| CCOC(=O)c1cc(C(=O)N[C@H]2CCCC[C@@H]2OCc2ccccc2)n(CC(=O)Nc2ncccc2Oc2ccccc2)n1 [Compound 200] | > 1 |
| Cc1ccc(OCC2CCC2)c(NC(=O)c2cc(C(=O)O)nn2CC(=O)N[C@H]2CCCC[C@@H]2OCc2ccccc2)c1 [Compound 9] | < 0.05 |
| CCOC(=O)c1cc(C(=O)N[C@H]2CCCC[C@@H]2OCc2ccccc2)n(CC(=O)Nc2cc(C)ccc2OCC2CCC2)n1 [Compound 206] | > 1 |

same assay, conditions: Δ21 Activity (IC50 μM), 50 nM NS5B (Δ21), numeric values

| Compound | IC50 [µM] |
| --- | --- |
| Cc1ccc(OCC2CCC2)c(NC(=O)c2cc(C(=O)O)nn2CC(=O)N[C@H]2CCCC[C@@H]2OCc2ccccc2)c1 [drawing 248] | 0.055 |
| Cc1ccc(OCc2ccsc2)c(NC(=O)c2cc(C(=O)O)nn2CC(=O)N[C@H]2CCCC[C@@H]2OCc2ccccc2)c1 [drawing 247] | 0.032 |
